Test results taken from ChEMBL document CHEMBL5046222, “Multifunctional Arylsulfone and Arylsulfonamide-Based Ligands with Prominent Mood-Modulating Activity and Benign Safety Profile, Targeting Neuropsychiatric Symptoms of Dementia” (J Med Chem, 2021).

Key:
[1] = target: 5-hydroxytryptamine receptor 6 (Homo sapiens) (UniProt P50406); details: CHO-K1, filed as antagonist, time 1.0 hrs
Rattus norvegicus [2] = organism: Rattus norvegicus; details: in vivo, ip, 10 min
Rattus norvegicus [3] = organism: Rattus norvegicus; experiment: animal or person; details: Wistar, ip, read-out: MED

Sequence of 5-hydroxytryptamine receptor 6 (Homo sapiens) (P50406 whole entry): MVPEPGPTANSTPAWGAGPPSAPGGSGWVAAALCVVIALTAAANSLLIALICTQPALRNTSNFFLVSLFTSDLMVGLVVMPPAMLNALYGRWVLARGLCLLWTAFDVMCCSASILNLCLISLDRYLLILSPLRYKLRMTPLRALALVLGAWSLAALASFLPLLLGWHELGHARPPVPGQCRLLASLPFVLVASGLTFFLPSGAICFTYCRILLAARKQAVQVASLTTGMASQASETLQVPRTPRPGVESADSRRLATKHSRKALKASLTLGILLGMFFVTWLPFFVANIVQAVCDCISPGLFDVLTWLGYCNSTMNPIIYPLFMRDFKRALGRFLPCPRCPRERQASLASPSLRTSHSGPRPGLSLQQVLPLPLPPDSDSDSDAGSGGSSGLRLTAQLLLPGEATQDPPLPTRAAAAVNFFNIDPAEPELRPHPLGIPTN

SMILES | pKb [1] | MED (Rattus norvegicus [2]) [mg/kg] | minimal effective dose (Rattus norvegicus [3]) [mg/kg]
O=S(=O)(c1ccccc1)c1cnc2c(N3CCNCC3)cccc2c1 | 9.47 | – | –
O=C1CC2(CCCC2)CC(=O)N1CCCCN1CCN(c2ncccn2)CC1 [BUSPIRONE] | – | 1 | –
CN1C(=O)CN=C(c2ccccc2)c2cc(Cl)ccc21 [DIAZEPAM] | – | 3 | –
CN(C)CCCN1c2ccccc2CCc2ccccc21 [IMIPRAMINE] | – | 10 | –
CC(C)COc1ccc(CNC(=O)N(Cc2ccc(F)cc2)C2CCN(C)CC2)cc1 [PIMAVANSERIN] | – | 0.1 | 0.1
